Source: US20030079241A1, “Premalignant, serially-transplantable breast tissue lines and uses thereof” (priority 2001, published 2003)

System: HPO line A
Assay: Effect of tamoxifen on tumor development in mice with bilateral implants of HPO line A
Format: in vivo
Conditions: mice receiving bilateral implants of HPO line A; after 15 weeks; all control vehicle mice developed bilateral tumors
Method: The instant invention also provides a method of using the above described premalignant serially-transplantable, hyperplastic outgrowth (HPO) breast tissue lines to screen for new chemopreventative agents against breast cancer. The serially-transplantable breast tissue lines are implanted into the inguinal mammary fat pads of syngeneic, non-transgenic recipient mice. Putative chemopreventative agents are administered to a subset of the implanted mice.
Breast tissue lines A, B, C, D, and E from zone 4 all express high levels of estrogen receptor, which is also expressed in human premalignant breast cells. This is important for testing chemopreventive agents that rely on this receptor. Moreover, the effects of tamoxifen on the development of tumors in mice receiving bilateral implants of HPO line A were examined.

Q: How did the development of tumors turn out when `CC/C(=C(\c1ccccc1)c1ccc(OCCN(C)C)cc1)c1ccccc1` [tamoxifen] was run?
A: None of the mice receiving tamoxifen developed tumors after 15 weeks
